Results on 7 compounds are retold here after PubChem BioAssay (NCI).

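Values below derive from 48-hour exposures of cells grown in 96-well plates, with endpoints linearly interpolated between the two concentrations bracketing the appropriate inhibition level. At the GI50, growth is halved. TGI denotes the concentration required for complete inhibition of growth.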 A value given as a limit tells only on which side of the number the result lay.

Among the test systems are SK-OV-3 ovarian; PC-3 prostate; SNB-19 CNS; UACC-257 melanoma; DU-145 prostate; NCI-H23 lung; NCI-H522 lung; MDA-MB-435; HT29 colon; MALME-3M melanoma.
What all share (assay): DTP human tumour cell line panel, 48 h

Consider `COc1ccc(-c2nc(-c3ccccc3)c(-c3ccccc3)n2C2CC2)cc1OC1CCCC1`, for which the GI50 (usually the concentration at which growth is held to half of that of the control) in the test with SK-OV-3 ovarian is > 165 µM; in the test on PC-3 prostate it was 22.6 µM; with SNB-19 CNS, > 165 µM; in the test with UACC-257 melanoma it was > 165 µM; in the test with DU-145 prostate, 94.5 µM; in the test on NCI-H23 lung it was > 165 µM. Also, the GI50 with NCI-H522 lung is 62.1 µM; in the test with MDA-MB-435 it was 147 µM; with HT29 colon, 85.1 µM. For the same compound, the TGI in the test on SK-OV-3 ovarian, in the test with PC-3 prostate, in the test on SNB-19 CNS, in the test on UACC-257 melanoma, in the test with DU-145 prostate and in the test on NCI-H23 lung was > 165 µM throughout. In addition, the concentration for total growth inhibition (TGI) in the test on NCI-H522 lung, with MDA-MB-435 and with HT29 colon was > 165 µM in each case.
On to `O=c1cc(-c2ccccc2)nc2n1CCN2Cc1ccccc1`, for which the GI50 with SK-OV-3 ovarian is 51.3 µM; in the test on PC-3 prostate, 32.3 µM; with SNB-19 CNS, 80.9 µM; in the test with UACC-257 melanoma it was 37.1 µM; with DU-145 prostate, 34 µM; in the test with NCI-H522 lung, 20.8 µM. Also, the figures for the GI50 in the test on MDA-MB-435 and in the test on HT29 colon were 31.1 µM and 58.1 µM, respectively. For the same compound, the TGI (usually the concentration giving total growth inhibition) in the test on SK-OV-3 ovarian was > 100 µM; with PC-3 prostate, > 100 µM; in the test on SNB-19 CNS, > 100 µM; with UACC-257 melanoma, > 100 µM; in the test with DU-145 prostate, > 100 µM; in the test on NCI-H522 lung, 56.1 µM. In addition, the TGI in the test with MDA-MB-435 and in the test with HT29 colon was > 100 µM throughout.
For `COc1nc(C)cc2c(=O)n(-c3ccccc3)n(CCCN3CCN(c4ccc(Cl)cc4)CC3)c(=O)c12`, the GI50 in the test on SK-OV-3 ovarian is 32.8 µM; with PC-3 prostate, 15.3 µM; with SNB-19 CNS it was 18.8 µM; in the test with DU-145 prostate, > 50 µM; in the test on MALME-3M melanoma it was > 50 µM; in the test on NCI-H23 lung it was > 50 µM. Further, the GI50 with NCI-H522 lung is 28.6 µM; with MDA-MB-435, > 50 µM; with HT29 colon, > 50 µM. Further, the TGI in the test on SK-OV-3 ovarian, in the test with PC-3 prostate, in the test with SNB-19 CNS, in the test with DU-145 prostate, with MALME-3M melanoma and in the test on NCI-H23 lung was > 50 µM each time. In addition, the concentration for total growth inhibition (TGI) in the test with NCI-H522 lung, with MDA-MB-435 and with HT29 colon was > 50 µM in each case.
Take `COC(=O)C(Nc1ccc(OC)cc1)c1ccccc1` (centres undefined): the TGI with PC-3 prostate, in the test with SNB-19 CNS, in the test on UACC-257 melanoma, with DU-145 prostate, in the test with NCI-H23 lung and in the test on NCI-H522 lung was > 100 µM throughout. The TGI in the test with MDA-MB-435 and in the test on HT29 colon was > 100 µM each time.
As to `Cc1cc(S(=O)(=O)Nc2nnc(-c3ccccc3)c(-c3ccccc3)n2)c(SCc2ccccc2)cc1Cl`, the GI50 in the test on PC-3 prostate was 21.2 µM; in the test on SNB-19 CNS, 25.7 µM; in the test on UACC-257 melanoma, 28.5 µM; with DU-145 prostate it was 15.2 µM; in the test with MALME-3M melanoma, 16.9 µM; in the test on NCI-H23 lung, 22.6 µM. Further, the GI50 in the test with NCI-H522 lung was 21.8 µM; in the test with MDA-MB-435 it was 21.7 µM; in the test on HT29 colon, 22.4 µM. Further, the TGI is 58 µM in the test on PC-3 prostate; 52.7 µM in the test on SNB-19 CNS; 70.1 µM with UACC-257 melanoma; 30.7 µM in the test with DU-145 prostate; 38.7 µM in the test on MALME-3M melanoma; 48.1 µM with NCI-H23 lung. In addition, the TGI in the test with NCI-H522 lung was 53.7 µM; with MDA-MB-435 it was 43.3 µM; in the test with HT29 colon, 51.7 µM.
Consider `Nc1ccccc1C#C/C=C\C#Cc1ccc(Cl)cc1Cl`, for which the GI50 in the test on SK-OV-3 ovarian is 27.8 µM; in the test with PC-3 prostate it was 9.04 µM; in the test on UACC-257 melanoma it was 18.3 µM; with DU-145 prostate, 13.5 µM; in the test on MALME-3M melanoma, 1.87 µM; in the test on NCI-H23 lung it was 14.2 µM. In addition, the values for the GI50 in the test with NCI-H522 lung, in the test on MDA-MB-435 and in the test on HT29 colon were 14.7 µM, 2.41 µM and 15.1 µM, respectively. In addition, the TGI in the test on SK-OV-3 ovarian turned out to be 80.5 µM; in the test on PC-3 prostate, 42.1 µM; with UACC-257 melanoma, 40.9 µM; in the test on DU-145 prostate it was 37.8 µM; in the test on MALME-3M melanoma, 17.2 µM; with NCI-H23 lung, 31.5 µM. The TGI in the test on NCI-H522 lung is 35.4 µM; in the test with MDA-MB-435 it was 5.8 µM; in the test on HT29 colon it was > 100 µM.
With `C[C@]12CC[C@@H]3c4ccc(O)cc4CC[C@H]3[C@@H]1CC[C@@H]2NS(=O)(=O)Cc1ccc(Cl)cc1`, the GI50 in the test on SK-OV-3 ovarian is 3.02 µM; in the test with PC-3 prostate, 2.64 µM; in the test with SNB-19 CNS, 3.66 µM; in the test on UACC-257 melanoma, 2.59 µM; in the test with DU-145 prostate, 3.99 µM; in the test with MALME-3M melanoma, 2.85 µM. Besides, the values for the GI50 with NCI-H23 lung, in the test with MDA-MB-435 and with HT29 colon were 2.76 µM, 2.78 µM and 3.34 µM, respectively. The TGI in the test with SK-OV-3 ovarian was 7.77 µM; in the test with PC-3 prostate, 15 µM; in the test with SNB-19 CNS, 47.1 µM; in the test with UACC-257 melanoma, 8.08 µM; in the test with DU-145 prostate it was 16.8 µM; in the test on MALME-3M melanoma, 9.95 µM. The TGI is 10.8 µM in the test with NCI-H23 lung, 9.03 µM in the test on MDA-MB-435 and 10.8 µM in the test on HT29 colon.
